Data from patent US20200010519A1, “NUCLEASE FUSIONS FOR ENHANCING GENOME EDITING BY HOMOLOGY-DIRECTED TRANSGENE INTEGRATION” (INSTITUT NATIONAL DE LA SANTE ET DE LA RECHERCHE …, priority 2017, published 2020).

How the values were obtained:
JAK (spacer 54) = experiment: Indel mutation patterns by deep sequencing of PCR amplicons, HEK293 cells; type: cell-based, human
[1] = system: JAK and PCSK genes, AAVS1 locus; experiment: Indel mutation patterns, all three guide RNAs taken together, HEK293 cells; type: cell-based, human; conditions: compared to Cas9, three guide RNAs

`O=c1cc(N2CCOCC2)oc2c(-c3cccc4c3sc3ccccc34)cccc12` [NU7441] was tested, and the “reduction of the two most frequent mutations observed with Cas9” value (JAK (spacer 54)) was 10 fold and the “indels with increased frequency that were deletions flanked by micro-homologies of 2 or more nucleotides” value [1] was 10 out of 12.
